The nature of data set [1]: Particle size, PdI and zeta potential of mRNA-encapsulating LNPs by dynamic light scattering (Experimental Example 2). Type of data set: physicochemical. As to conditions: mRNA-encapsulating LNP containing the cationic lipid.
The subject of data set [2] is mouse red blood cells. Description: Hemolysis activity (membrane fusion ability) at pH 7.4 and 5.5 (Experimental Example 5). The data set is classed as cell-based, ICR mice. As to conditions: physiological pH (7.4); final lipid concentration 100 µM; Fig. 1. The method, then:
LNPs encapsulating mRNA that expresses luciferase (cationic lipid:DOPC:Chol:DMG-PEG2k=52.5:7.5:40:1.5 (molar ratio)) were prepared using the method described in [Experimental Example 2] 1. As cationic lipid, the cationic lipid of Comparative Example, compound 9, compound 14, compound 27, compound 33, or compound 42 was used.
(§1) The collected blood was immediately mixed with 1.0 µL of heparin solution (5000 U/5 mL). About 9 mL of PBS was added to the blood to make the total volume 10 mL. The mixture was then mixed by inversion and centrifuged (4°C, 400 g, 10 min). The supernatant containing plasma components was removed using a Pasteur pipette. About 9 mL of PBS was added to the blood cell components to make the total volume 10 mL, and the mixture was centrifuged again. A similar washing procedure was repeated 4 times to obtain mouse red blood cells.
2, 4, 6, 8, and 10 µL of mouse red blood cells were weighed and diluted with PBS containing 1 w/v% Triton-X100. The entire diluted solution was transferred to a clear 96-well plate, and the absorbance at 545 nm was measured using a plate reader. A calibration curve was created using these samples, and the point where the absorbance reached 1 was determined as the amount of blood cells to be used in the hemolysis assay. Empty LNP solution was weighed into an Eppendorf tube and diluted with malic acid-PBS buffer (pH 5.5, pH 7.4), followed by addition of mouse red blood cells. The final lipid concentration was 100 µM at pH 7.4 and 33.3 µM at pH 5.5, and the final volume of the solution was 250 µL. Each tube was shaken at 1900 rpm for 15 min. Each sample was centrifuged under centrifugation conditions (4°C, 400 g, 5 min), and 100 µL of the supernatant was transferred to a clear 96-well plate and the absorbance at 545 nm was measured. Untreated red blood cells were used as the negative control. […] The hemolysis activity of each sample was calculated using the following formula: Hemolysis activity (%) = 100×(absorbance of each sample - absorbance of negative control)/(absorbance of positive control - absorbance of negative control).

Data set [3] has as its system mouse red blood cells. Description: Hemolysis activity (membrane fusion ability) at pH 7.4 and 5.5 (Experimental Example 8). Type of data set: cell-based, ICR mice. As to conditions: physiological pH (7.4); final lipid concentration 100 µM; Fig. 3. As for the experimental part:
LNP encapsulating mRNA that expresses luciferase (cationic lipid:DOPC:Chol:DMG-PEG2k = 52.5:7.5:40:1.5 (molar ratio)) was prepared by the method described in […], 1. As cationic lipid, the cationic lipid of Comparative Example, compound 94, compound 112, compound 162, compound 181, or compound 194 was used.
as §1
2, 4, 6, 8, and 10 µL of mouse red blood cells were weighed and diluted with PBS containing 1 w/v% Triton-X100. The entire diluted solution was transferred to a clear 96-well plate, and the absorbance at 545 nm was measured using a plate reader. A calibration curve was created using these samples, and the point where the absorbance reached 1 was determined as the amount of blood cells to be used in the hemolysis assay. Empty LNP solution was weighed into an Eppendorf tube and diluted with malic acid-PBS buffer (pH 5.5, pH 7.4), followed by addition of mouse red blood cells. The final lipid concentration was 100 µM at pH 7.4 and 33.3 µM at pH 5.5, and the final volume of the solution was 250 µL. Each tube was shaken at 1900 rpm for 15 min. Each sample was centrifuged under centrifugation conditions (4°C, 400 g, 5 min), and 100 µL of the supernatant was transferred to a clear 96-well plate and the absorbance at 545 nm was measured. Untreated red blood cells were used as the negative control. 1 w/v% Triton-X was used as the positive control. The hemolysis activity of each sample was calculated using the following formula: Hemolysis activity (%) = 100×(absorbance of each sample - absorbance of negative control)/(absorbance of positive control - absorbance of negative control).

Where [4] appears, read: dispersion in PBS, dynamic light scattering (Table 5-3).

Experimental findings from patent EP4692059A1, “CATIONIC LIPID HAVING DISULFIDE BOND” (Tohoku University, priority 2023, dated 2024) are described below.

As to `CCCCCCCC/C=C\CCCCCCCC(=O)Oc1ccc(CC(=O)OCCC2CCN(CCSSCCN3CCC(CCOC(=O)Cc4ccc(OC(=O)CCCCCCC/C=C\CCCCCCCC)cc4)CC3)CC2)cc1` [Comparative Example, reference compound], in data set [1] (dispersion in PBS (Table 5-3)), the “zeta potential (mV)” value is reported as -4.47 mV. For the same compound, in data set [1] (setting [4]), the PdI is 0.099 and the “particle size (nm)” value amounted to 108.70 nm. Moreover, in the data set on mouse red blood cells [2], the hemolysis activity result is “did not exhibit hemolysis activity”. In the data set on mouse red blood cells [3], the hemolysis activity result was “none”.
